Assays:
[1] = biological target: T1, human MTAP (Homo sapiens, UniProt Q13126); experiment: Inhibition assay of MTAP; format: biochemical; conditions: for binding to the catalytic site of MTAP: at concentrations of 5 μM inhibitor
T1 sequence (Q13126 1-283): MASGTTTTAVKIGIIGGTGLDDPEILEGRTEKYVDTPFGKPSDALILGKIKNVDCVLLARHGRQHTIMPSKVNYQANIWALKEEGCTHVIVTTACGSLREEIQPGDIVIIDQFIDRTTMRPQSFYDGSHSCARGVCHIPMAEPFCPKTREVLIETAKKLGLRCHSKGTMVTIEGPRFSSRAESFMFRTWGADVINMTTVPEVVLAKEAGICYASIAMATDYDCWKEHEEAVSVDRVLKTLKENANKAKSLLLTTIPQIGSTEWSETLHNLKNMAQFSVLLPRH

[2] = biological target: T2, HpMTAN (Helicobacter pylori, UniProt Q9ZMY2); experiment: Inhibition assay of HpMTAN; format: biochemical; conditions: for binding to the catalytic site of HpMTAN: at concentrations of 5 μM inhibitor; for preference for HpMTAN (specificity ratio Kd Hs/Hp): affinity for human MTAP relative to HpMTAN
T2 sequence (Q9ZMY2 1-230): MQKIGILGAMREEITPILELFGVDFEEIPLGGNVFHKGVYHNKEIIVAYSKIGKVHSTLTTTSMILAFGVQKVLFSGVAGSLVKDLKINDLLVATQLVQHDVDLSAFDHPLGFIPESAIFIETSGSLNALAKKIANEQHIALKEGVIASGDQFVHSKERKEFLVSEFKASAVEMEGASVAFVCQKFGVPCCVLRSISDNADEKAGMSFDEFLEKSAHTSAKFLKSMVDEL

Structure (SMILES): CSC[C@H]1CN(Cc2c[nH]c3c(=O)[nH]ccc23)C[C@@H]1O [compound 35]
- binding to the catalytic site of MTAP [1]: eliminates binding
- binding to the catalytic site of HpMTAN [2]: eliminates binding

Structure (SMILES): CCCCn1cc(CCCSC[C@H]2CN(Cc3c[nH]c4c(N)ncnc34)C[C@@H]2O)nn1 [compound 30]
- Kd [2]: 26 to 55 pM

Structure (SMILES): C#CCSC[C@H]1CN(Cc2c[nH]c3c(N)ncnc23)C[C@@H]1O [compound 15]
- Kd [2]: 26 to 55 pM
- preference for HpMTAN (specificity ratio Kd Hs/Hp) [2]: 12- to 36 fold

Structure (SMILES): C#CCCCSC[C@H]1CN(Cc2c[nH]c3c(N)ncnc23)C[C@@H]1O [compound 16]
- Kd [2]: 26 to 55 pM
- preference for HpMTAN (specificity ratio Kd Hs/Hp) [2]: 12- to 36 fold

Structure (SMILES): Nc1ncnc2c(CN3C[C@H](CSCCCc4cn(Cc5ccccc5)nn4)[C@@H](O)C3)c[nH]c12 [compound 32]
- Kd [2]: 26 to 55 pM

Structure (SMILES): CSC[C@H]1CN(Cc2c[nH]c3c(N)nccc23)C[C@@H]1O [compound 8, 3-deazaMTDIA]
- increase of dissociation constant relative to MTDIA (1), MTAP ([1]; compared with 1 (86 pM)): > 100 fold
- increase of dissociation constant relative to MTDIA (1), HpMTAN ([2]; compared with 1 (86 pM)): > 100 fold

Structure (SMILES): O=c1[nH]ccc2c(CN3C[C@H](CO)[C@@H](O)C3)c[nH]c12 [compound 34]
- binding to the catalytic site of MTAP [1]: eliminates binding
- binding to the catalytic site of HpMTAN [2]: eliminates binding

From paper PMC6635953 (Journal of medicinal chemistry, 2019)
